# Results from patent publication US20200383969A1, “RIMEGEPANT FOR CGRP RELATED DISORDERS” (Biohaven Pharmaceutical Holding Company Ltd., priority 2018, published 2020).
# What was measured:
# Format in all cases: in vivo, human
# [1] = Pooled adverse event and liver function test data, Studies 301, 302 and 303
# [2] = Study 302 (BHV3000-302), Phase 3, rimegepant 75 mg tablet vs placebo, acute treatment of migraine
# Description: Clinical Trial—BHV3000-302 : Phase 3: Double-Blind, Randomized, Placebo-Controlled, Safety and Efficacy Trial of BHV-3000 (Rimegepant) for the Acute Treatment of Migraine (ClinicalTrials.gov Identifier: NCT03237845) • Study Type: Interventional (Clinical Trial) • Actual Enrollment: 1503 participants • Allocation: Randomized • Intervention Model: Parallel Assignment • Intervention Model Description: Double-blind to Sponsor, Investigator and Subject • Masking: Triple (Participant, Care Provider, Investigator) • Masking Description: Double-blind to Sponsor, Investigator and Subject • Primary Purpose: Treatment • Official Title: BHV3000-302: Phase 3: Double-Blind, Randomized, Placebo-Controlled, Safety and Efficacy Trial of BHV-3000 (Rimegepant) for the Acute Treatment of Migraine • Actual Study Start Date : Jul. 26, 2017 • Primary Completion Date : Jan. 25, 2018 • Study Completion Date : Jan. 31, 2018 • 1. Pain Freedom of rimegepant (75 mg tablet) compared with placebo in the acute treatment of migraine will be measured using the number of evaluable subjects that report no pain at 2 hours post-dose. [Time Frame: Two hours post dose] • Pain will be measured on a 4 point Likert scale (0=none, 1=mild, 2=moderate, 3=severe) • 2. Freedom from the most bothersome symptom (MBS) of rimegepant (75 mg tablet) compared with placebo will be measured using the number of evaluable subjects that report the absence of their MBS at 2 hours post-dose. [Time Frame: Two hours post dose] • The MBS (nausea, phonophobia or photophobia) will measured using a binary scale (0=absent, 1=present). • 1. […] [Time Frame: 2 hours -24 hours post-dose] • Sustained Pain Freedom as measured by a 4 point numeric rating scale (None, Mild, Moderate, Severe) • 2. Rimegepant (75 mg tablet) compared to placebo by tabulating the number of subjects that report the absence of photophobia at 2 hours post-dose in the subset of subjects that reported the presence of photophobia at headache baseline. [Time Frame: 2 hours post-dose] • Freedom from Photophobia • 3. Rimegepant (75 mg tablet) compared to placebo by tabulating the number of subjects that report the absence of phonophobia at 2 hours post-dose in the subset of subjects that reported the presence of phonophobia at headache baseline. [Time Frame: 2 hours post-dose] • Freedom from Phonophobia • 4. To measure rimegepant (75 mg tablet) compared to placebo on Pain Relief, at 2 hours post-dose, that report a pain level of moderate or severe at baseline and then report a pain level of none or mild. [Time Frame: 2 hours post-dose] • Pain Relief as measured by a 4 point numeric rating scale (None, Mild, Moderate, Severe) • 5. Freedom from Nausea will by tabulating the number of subjects that report the absence of nausea at 2 hours post-dose in the subset of subjects that reported the presence of nausea at headache baseline. [Time Frame: 2 hours post-dose] • Freedom from Nausea • 6. To measure rimegepant (75 mg tablet) compared to placebo on the probability of requiring rescue medication will be assessed using the number of subjects that take rescue medication within […] administration of study medication (BHV3000 or placebo). [Time Frame: up to 24 hours post-dose] • Requiring Rescue Medication • 7. […] [Time Frame: 2 hours-48 hours post-dose] • Sustained Pain Freedom as measured by a 4 point numeric rating scale (None, Mild, Moderate, Severe) • 8. […] [Time Frame: 2 hours-24 hours post-dose] • Sustained Pain Relief as measured by a 4 point numeric rating scale (None, Mild, Moderate, Severe) • 9. […] [Time Frame: 2 hours-48 hours post-dose] • Sustained Pain Relief as measured by a 4 point numeric rating scale (None, Mild, Moderate, Severe) • 10. Rimegepant (75 mg tablet) relative to placebo on the proportion of subjects able to function normally, at 2 hours, using the number of subjects that self-report as “normal” on the functional disability scale. [Time Frame: 2 hours post-dose] • Functional Disability Score • 11. […]
# [3] = Pooled liver function test profile, Studies 301 and 302; conditions: pooled Studies 301+302; n = 1089
# Description: Results from Clinical Trials—The study results from the clinical studies described in Example 2 and Example 3 are set forth in FIG. 1, FIG. 2 and Table 2, Table 3 and Table 4.
# (§1) In a double-blind, randomized, placebo-controlled, multicenter study (Study 301, NCT03235479) adults ≥18 years of age with at least a 1-year history of ICHD 3-beta migraine were eligible to participate. Following a 3- to 28-day screening period, subjects were randomized to receive rimegepant 75 mg or matching placebo and instructed to treat a single migraine attack with 1 dose of the blinded study drug (rimegepant or placebo) when headache pain reached moderate or severe intensity. The coprimary endpoints were pain freedom at 2 hours postdose and freedom from the most bothersome symptom (MBS) at 2 hours postdose. Safety assessments included adverse events (AEs), ECGs, vital signs, physical measurements, and routine laboratory tests, including assessment of liver function. Unless stated otherwise, values presented are mean ±SD.
# as §1, with “302, NCT03237845)” for “301, NCT03235479)”
# [4] = pooled Studies 301, 302, 303, n = 1,771
structure (smiles),measurement,setting,value
"N[C@@H]1c2cccnc2[C@H](OC(=O)N2CCC(n3c(=O)[nH]c4ncccc43)CC2)CC[C@H]1c1cccc(F)c1F [Rimegepant, [(5S,6S,9R)-5-amino-6-(2,3-difluorophenyl)-6,7,8,9-tetrahydro-5H-cyclohepta[b]pyridin-9-yl] 4-(2-oxo-3H-imidazo[4,5-b]pyridin-1-yl)piperidine-1-carboxylate]",Bilirubin elevations > 2 × ULN,"[1]; across Studies 301, 302 and 303",no patients experienced elevations
same,"ALT or AST >5 × ULN, patients","[1]; pooled Studies 301, 302, 303, AST elevation, not drug-related per investigator",(0.06%)^2
same,"ALT or AST >3 × ULN, patients",[1]; [4],(0.1%)
same,"ALT or AST >ULN, patients",[1]; [4],(2.7%)
same,SAEs related to the study drug,[2],No SAEs
same,"AE nausea, incidence",[2]; 75 mg tablet,1.8%
same,"AE nausea, n/N",[2]; 75 mg tablet,10/543
same,"AE urinary tract infection, incidence",[2]; 75 mg tablet,1.5%
same,"AE urinary tract infection, n/N",[2]; 75 mg tablet,8/543
same,Bilirubin elevations greater than 2 times ULN,[2]; 75 mg tablet,no bilirubin elevations
same,"Serum ALT or AST > ULN, n/N",[2]; 75 mg tablet,13/543
same,"Serum ALT or AST > ULN, subjects",[2]; 75 mg tablet,2.4%
same,Transaminase level greater than 3 times ULN,[2]; 75 mg tablet,No subject
same,Normal function at 2 hours (functional disability) vs placebo,[2]; P<0.0001,greater proportion
same,"Serious AEs, number of subjects",[2]; back pain,1
same,Sustained pain relief from 2 through 48 hours postdose vs placebo,"[2]; single dose, no rescue medication, P<0.0001",superiority versus placebo
same,Sustained pain freedom from 2 through 48 hours postdose vs placebo,"[2]; single dose, no rescue medication, P=0.0181",superiority versus placebo
same,"ALT >3 × ULN, subjects",[3],0.1%
same,"ALT >ULN, subjects",[3],2.0%
same,"AST >3 × ULN, subjects",[3],0.1%
same,"AST >ULN, subjects",[3],1.1%
